Reference: patent EP0189941A2, “Antibiotic compositions” (Bristol-Myers Squibb Company, priority 1985, dated 1986)
Where two headings read alike, the source gives them in different places.

Tests used:
[1] = dry state
[2] = Hygroscopicity; assay type: physicochemical; details: in words
[3] = Intravenous toxicity test (LD50); details: mouse, in vivo, mice, dosing solution 333 mg of cefbuperazone activity per ml, parentheses = 95% confidence limits
Description: Intravenous toxicity tests were conducted in Swiss-Webster mice using the sodium salt of cefbuperazone and the compositions of the present invention. In each case, the dosing solution contained 333 mg of cefbuperazone activity per ml.

[4] = Stability in the dry state (% loss on storage at elevated temperature); details: 100°C - 1 day, listed as Lyophilized anhydrous sodium cefbuperazone
[5] = test system: weanling female Sprague-Dawley rats; assay: Rat paw-lick test for pain on injection; assay type: in vivo; details: pH 5.3; 0.1 ml subplantar, 333 mg activity per ml; mean 0-3 minutes after injection ± Standard Error
Description: The test animals were weanling female Sprague-Dawley rats. The test solutions were injected into the subplantar tissue of the right or left hind paw, using a syringe with a 27 gauge, 1/2-inch needle. […] The paw-lick response, an indicator of the pain caused by the injection, was recorded for each rat for three minutes following the injection. A paw-licking episode is defined as a licking response followed by a turning of the head away from the paw or five seconds of uninterrupted licking.

[6] = pH of unit dosage forms reconstituted with Sterile Water for Injection; assay type: physicochemical; details: diluted with Sterile Water for Injection, U.S.P. to 333 mg of cefbuperazone activity per ml
[7] = From the text: The most preferred pH range of the reconstituted solution is about 4 to about 5, because pain upon injection normally increases with […].
For this reason, it is not possible to give absolute gram amounts of cefbuperazone and lysine, arginine, lysine acetate and/or arginine acetate to produce a specific pH. The amount of each ingredient can readily be determined for individual batches of the two components by titration of the cefbuperazone with the other component.

[8] = physchem; details: dry state, % Loss

SMILES: CCN1CCN(C(=O)NC(C(=O)NC2(OC)C(=O)N3C(C(=O)O)=C(CSc4nnnn4C)CSC32)C(C)O)C(=O)C1=O (stereo not shown) [Cefbuperazone free acid hemiacetonate]
- % Loss ([1]; 48 h): 0%
- % Loss ([1]; 336 h): 0%
- hygroscopicity [2]: non- hygroscopic

SMILES: CCN1CCN(C(=O)NC(C(=O)NC2(OC)C(=O)N3C(C(=O)O)=C(CSc4nnnn4C)CSC32)C(C)O)C(=O)C1=O (stereo not shown) [sodium cefbuperazone]
- % Loss ([1]; 72 h): 37.2%
- % Loss ([1]; 336 h): 38.0%
- % Loss ([1]; 1344 h): 35.0%
- LD50 [3]: > 5000 mg/kg
- % Loss [4]: melts/decomposes
- Paw-Lick Response [5]: 5.20 ± 1.31 (10)
- pH of Solution [6]: 5.3

SMILES: CCN1CCN(C(=O)NC(C(=O)NC2(OC)C(=O)N3C(C(=O)O)=C(CSc4nnnn4C)CSC32)C(C)O)C(=O)C1=O (stereo not shown) [Cefbuperazone free acid dihydrate]
- % Loss ([1]; 24 h): + 4.5%
- % Loss ([1]; 48 h): + 3.3%
- % Loss ([1]; 336 h): + 4.6%
- % Loss ([1]; 1344 h): + 2.2%
- water solubility [7]: insufficiently water-soluble
- pH at which solution of the cefbuperazone takes place ([7]; 264.4 mg suspended in 10 ml of water, titrated with aqueous L(+) lysine): ~3.5
- degraded at 168 h [8]: 3.7%
- degraded at 840 h [8]: 0%
- degraded at 1008 h [8]: 1.8%

SMILES: CCN1CCN(C(=O)NC(C(=O)NC2(OC)C(=O)N3C(C(=O)O)=C(CSc4nnnn4C)CSC32)C(C)O)C(=O)C1=O (stereo not shown) [Anhydrous cefbuperazone free acid]
- % Loss ([1]; 72 h): 7.8%
- % Loss ([1]; 168 h): 4.1%
- % Loss ([1]; 672 h): 3.4%
